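48-hour exposure; five concentrations; linearly interpolated endpoints. GI50: concentration for 50% inhibition of growth. At the TGI there is no net growth.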
Key:
Assay in all cases: growth of human tumour cells (NCI), 48 h
SW-620 colon = test system: SW-620 colon
HOP-62 NSCLC = test system: HOP-62 NSCLC
T-47D breast = test system: T-47D breast
U251 CNS = test system: U251 CNS
EKVX NSCLC = test system: EKVX NSCLC
OVCAR-3 ovarian = test system: OVCAR-3 ovarian
RPMI-8226 leukemia = test system: RPMI-8226 leukemia

Cc1ccc(N=Nc2c(O)ccc3cc(S(=O)(=O)O)cc(S(=O)(=O)O)c23)cc1
TGI (SW-620 colon): > 100 µM
TGI (HOP-62 NSCLC): > 100 µM
TGI (T-47D breast): > 100 µM
TGI (U251 CNS): > 100 µM
TGI (EKVX NSCLC): > 100 µM
TGI (OVCAR-3 ovarian): > 100 µM

COc1cc(Cn2c3c(c4cc(O)ccc42)Cc2ccccc2C3=O)cc(OC)c1
TGI (SW-620 colon): > 100 µM
TGI (HOP-62 NSCLC): > 100 µM
TGI (RPMI-8226 leukemia): 26.5 µM
TGI (U251 CNS): > 100 µM
TGI (OVCAR-3 ovarian): > 100 µM

CCOC(=O)N/N=C(/N)c1cccc([N+](=O)[O-])c1
TGI (SW-620 colon): > 100 µM
TGI (HOP-62 NSCLC): > 100 µM
TGI (T-47D breast): > 100 µM
TGI (U251 CNS): > 100 µM
TGI (EKVX NSCLC): > 100 µM
TGI (OVCAR-3 ovarian): > 100 µM

N=C(N)c1ccc(C(NC(=O)CNS(=O)(=O)c2ccc3ccccc3c2)P(=O)(Oc2ccccc2)Oc2ccccc2)cc1 (stereo not given)
TGI (SW-620 colon): > 100 µM
TGI (HOP-62 NSCLC): > 100 µM
TGI (T-47D breast): > 100 µM
TGI (RPMI-8226 leukemia): > 100 µM
TGI (U251 CNS): > 100 µM
TGI (OVCAR-3 ovarian): > 100 µM

O=C(O)Cc1cccc2c(=O)c3ccccc3oc12
TGI (SW-620 colon): > 100 µM
TGI (HOP-62 NSCLC): > 100 µM
TGI (T-47D breast): 61.7 µM
TGI (RPMI-8226 leukemia): > 100 µM
TGI (U251 CNS): > 100 µM
TGI (EKVX NSCLC): > 100 µM
TGI (OVCAR-3 ovarian): > 100 µM

COC[C@@H](C[C@H]1O[C@@](O)([C@H](O)[C@@H]2C[C@H](OC)[C@@H](O)CC/C=C(C)/C=C/[C@@H](O[C@@H]3O[C@@H](C)[C@H](OC)[C@@H](O)[C@@H]3O)[C@H](C)/C=C(C)/C=C(C)/C=C(\C)C(=O)O2)[C@H](C)[C@@H](O)[C@H]1C)O[C@H]1C[C@](C)(O)[C@@H](O[C@H]2C[C@@H](OC)[C@H](O)[C@@H](C)O2)C(C)O1 (stereo not given in full)
TGI (SW-620 colon): > 100 µM
TGI (HOP-62 NSCLC): > 100 µM
TGI (T-47D breast): > 100 µM
TGI (RPMI-8226 leukemia): > 100 µM
TGI (U251 CNS): > 100 µM
TGI (EKVX NSCLC): > 55.9 µM
TGI (OVCAR-3 ovarian): > 100 µM

O=Cc1ccc2c(c1)CC1(Cc3ccccc3C1)C2
TGI (HOP-62 NSCLC): 34.2 µM
TGI (T-47D breast): > 100 µM
TGI (RPMI-8226 leukemia): 53.4 µM
TGI (U251 CNS): 36.2 µM
TGI (EKVX NSCLC): > 100 µM
TGI (OVCAR-3 ovarian): 28.3 µM

NN/C(=N\S(=O)(=O)c1cc2ccccc2s1)Nc1ccc(Cl)cc1
TGI (SW-620 colon): 54.9 µM
TGI (HOP-62 NSCLC): 38.2 µM
TGI (T-47D breast): 37.8 µM
TGI (RPMI-8226 leukemia): 35.6 µM
TGI (U251 CNS): 34.5 µM
TGI (EKVX NSCLC): 42.2 µM
TGI (OVCAR-3 ovarian): 34.5 µM

O=C1C(CN2CCCCC2)CCC1CN1CCCCC1 (stereo not given)
TGI (SW-620 colon): 16 µM
TGI (HOP-62 NSCLC): > 100 µM
TGI (T-47D breast): 36.5 µM
TGI (RPMI-8226 leukemia): 28.4 µM
TGI (U251 CNS): > 73.2 µM
TGI (EKVX NSCLC): > 100 µM
TGI (OVCAR-3 ovarian): 26.5 µM

CC(=O)OCC12C(=O)C[C@@H](C)C3(CC(c4ccoc4)OC3=O)C1CCC(OC(C)=O)C21CO1 (stereo not given in full)
TGI (SW-620 colon): > 100 µM
TGI (HOP-62 NSCLC): > 100 µM
TGI (T-47D breast): > 100 µM
TGI (RPMI-8226 leukemia): > 100 µM
TGI (U251 CNS): > 100 µM
TGI (OVCAR-3 ovarian): > 100 µM

O=C(c1ccc(N=Cc2ccccc2O)cc1)c1ccc(N=Cc2ccccc2O)cc1
TGI (SW-620 colon): > 100 µM
TGI (HOP-62 NSCLC): > 100 µM
TGI (T-47D breast): > 100 µM
TGI (RPMI-8226 leukemia): > 100 µM
TGI (U251 CNS): > 100 µM
TGI (EKVX NSCLC): > 100 µM
TGI (OVCAR-3 ovarian): > 100 µM

COc1cc(CNCc2cc(OC)c(OC)c(OC)c2)cc(OC)c1OC
TGI (SW-620 colon): > 10 µM
TGI (HOP-62 NSCLC): > 10 µM
TGI (T-47D breast): > 10 µM
TGI (RPMI-8226 leukemia): > 10 µM
TGI (U251 CNS): > 10 µM
TGI (EKVX NSCLC): > 10 µM
TGI (OVCAR-3 ovarian): > 10 µM

C(=Nc1ccc(-c2nc3ccccc3[nH]2)cc1)c1cccs1
TGI (SW-620 colon): > 100 µM
TGI (HOP-62 NSCLC): > 100 µM
TGI (T-47D breast): > 100 µM
TGI (RPMI-8226 leukemia): > 100 µM
TGI (U251 CNS): > 100 µM
TGI (EKVX NSCLC): > 100 µM
TGI (OVCAR-3 ovarian): > 100 µM

NC(N)=NCCC[C@H](N)C(=O)NCC(=O)N[C@@H](CC(=O)O)c1ncc(NC(=O)C(F)(F)F)o1
TGI (SW-620 colon): > 25 µM
TGI (HOP-62 NSCLC): > 25 µM
TGI (T-47D breast): > 25 µM
TGI (U251 CNS): > 25 µM
TGI (EKVX NSCLC): > 25 µM
TGI (OVCAR-3 ovarian): > 25 µM

CCOC(=O)c1cc(C(O)P2(=O)N(CC(C)(C)C)[C@@H]3CCCC[C@H]3N2CC(C)(C)C)cn1C(=O)OC(C)(C)C (stereo not given in full)
TGI (SW-620 colon): 32.6 µM
TGI (HOP-62 NSCLC): 28.1 µM
TGI (T-47D breast): > 100 µM
TGI (RPMI-8226 leukemia): 29.8 µM
TGI (U251 CNS): 29.4 µM
TGI (EKVX NSCLC): 55.6 µM
TGI (OVCAR-3 ovarian): 25 µM

C[N+](C)(C)CC1CCCCCCCCCCC1=O (stereo not given)
TGI (SW-620 colon): > 100 µM
TGI (HOP-62 NSCLC): > 100 µM
TGI (T-47D breast): > 100 µM
TGI (RPMI-8226 leukemia): > 100 µM
TGI (U251 CNS): > 100 µM
TGI (EKVX NSCLC): > 100 µM
TGI (OVCAR-3 ovarian): > 100 µM

c1ccc2c(c1)ccn2CCc1c[nH]c2ccccc12
TGI (SW-620 colon): > 10 µM
TGI (HOP-62 NSCLC): > 10 µM
TGI (T-47D breast): > 10 µM
TGI (RPMI-8226 leukemia): > 10 µM
TGI (U251 CNS): > 10 µM
TGI (EKVX NSCLC): > 10 µM
TGI (OVCAR-3 ovarian): > 10 µM

CNc1ccc(C(=O)CC(O)CCC(C)C2OC(=O)CC(O)CC(=O)CC(O)CC(O)CC(O)CC(O)CC3(O)CC(O)C(C(=O)OC)C(CC(O[C@@H]4O[C@H](C)[C@@H](O)[C@H](N)[C@@H]4O)/C=C/C=C/C=C/C=C/C=C/C=C/C=C/C2C)O3)cc1 (stereo not given in full)
GI50 (SW-620 colon): 5.33 µM
TGI (SW-620 colon): 40.5 µM
GI50 (HOP-62 NSCLC): 2270 nM
TGI (HOP-62 NSCLC): 5.03 µM
GI50 (T-47D breast): 3.37 µM
TGI (T-47D breast): > 100 µM
GI50 (RPMI-8226 leukemia): 3.57 µM
TGI (RPMI-8226 leukemia): 54.5 µM
GI50 (U251 CNS): 3.87 µM
TGI (U251 CNS): 56.4 µM
GI50 (OVCAR-3 ovarian): 2730 nM
TGI (OVCAR-3 ovarian): 6.26 µM

O=C1C=CC[C@H]2O[C@@H](COC(=O)Cc3ccccc3)C[C@H]2O1
TGI (SW-620 colon): > 100 µM
TGI (HOP-62 NSCLC): > 100 µM
TGI (T-47D breast): > 100 µM
TGI (RPMI-8226 leukemia): > 100 µM
TGI (EKVX NSCLC): 70.1 µM
TGI (OVCAR-3 ovarian): > 100 µM

CCOC(=O)c1nc2ccc(C(F)(F)F)cc2nc1NCc1cc(OC)c(OC)c(OC)c1
TGI (SW-620 colon): > 100 µM
TGI (HOP-62 NSCLC): > 100 µM
TGI (T-47D breast): > 100 µM
TGI (RPMI-8226 leukemia): 48 µM
TGI (EKVX NSCLC): > 100 µM
TGI (OVCAR-3 ovarian): > 100 µM

Cc1ccc([N+](=O)[O-])cc1S(=O)(=O)Nc1ccc(C2=NNC(c3ccccc3)C2)cc1 (stereo not given)
TGI (SW-620 colon): > 100 µM
TGI (HOP-62 NSCLC): 27.2 µM
TGI (T-47D breast): 28.5 µM
TGI (RPMI-8226 leukemia): > 100 µM
TGI (EKVX NSCLC): > 100 µM
TGI (OVCAR-3 ovarian): 20.4 µM

Cc1ccc(SCC(CF)OC(C)n2cnc3c(=O)[nH]c(N)nc32)cc1 (stereo not given)
TGI (SW-620 colon): > 100 µM
TGI (HOP-62 NSCLC): > 100 µM
TGI (T-47D breast): > 100 µM
TGI (RPMI-8226 leukemia): > 100 µM
TGI (U251 CNS): > 100 µM
TGI (OVCAR-3 ovarian): > 100 µM

C=CC(CCc1ccc(C(=O)OCC)cc1)c1c(N)nc(N)[nH]c1=O (stereo not given)
TGI (SW-620 colon): > 100 µM
TGI (HOP-62 NSCLC): > 100 µM
TGI (T-47D breast): > 100 µM
TGI (RPMI-8226 leukemia): > 100 µM
TGI (U251 CNS): > 100 µM
TGI (OVCAR-3 ovarian): > 100 µM

COC(CNC(=O)C(C)NC(=O)CCc1ccccc1)OC (stereo not given)
TGI (SW-620 colon): > 100 µM
TGI (T-47D breast): > 100 µM
TGI (RPMI-8226 leukemia): > 100 µM
TGI (U251 CNS): > 100 µM
TGI (EKVX NSCLC): > 100 µM

CC12C(=O)CC(CC1=O)C2(C)C
TGI (SW-620 colon): > 100 µM
TGI (HOP-62 NSCLC): > 100 µM
TGI (T-47D breast): > 100 µM
TGI (RPMI-8226 leukemia): > 100 µM
TGI (EKVX NSCLC): > 100 µM
TGI (OVCAR-3 ovarian): > 100 µM

O=C(O)c1ccc([N+](=O)[O-])c2cc3cnccc3nc12
TGI (HOP-62 NSCLC): > 100 µM
TGI (T-47D breast): 58.6 µM
TGI (RPMI-8226 leukemia): > 100 µM
TGI (U251 CNS): 35.6 µM
TGI (OVCAR-3 ovarian): 36.4 µM

COc1cc(C(=O)N(Cc2cccnc2)C(=S)N(Cc2cccnc2)C(=O)c2cc(OC)c(OC)c(OC)c2)cc(OC)c1OC
TGI (SW-620 colon): > 100 µM
TGI (HOP-62 NSCLC): > 100 µM
TGI (T-47D breast): > 100 µM
TGI (RPMI-8226 leukemia): > 100 µM
TGI (EKVX NSCLC): > 100 µM
TGI (OVCAR-3 ovarian): > 100 µM

— PubChem BioAssay (NCI)
